Source: patent publication US12209102B2, “Heterocyclic compounds and uses thereof” (Kumquat Biosciences Inc., priority 2022, dated 2025)

Key:
K-Ras G12S = biological target: T1, K-Ras G12S (Homo sapiens, UniProt P01116, G12S); test: HTRF resonance energy transfer assay, K-Ras G12S / SOS1 interaction; format: biochemical; details: HTRF assay of Example 5; read-out: IC50 against K-Ras G12S
T1 construct: made in house; host or cells: E. coli BL21 (DE3)
Procedure, shortened: (§1)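 Read-out: HTRF 665/620 nm ratio (excitation 337 nm) after roughly 10 min or longer incubation, used to derive IC50. Donor anti-GST-Eu on GST-K-Ras; acceptor anti-6His-XL665 on His-hSOS1. Duplicate dose series from 10 μM down to 0.01 μM.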

K-Ras WT = biological target: T2, K-Ras WT (Homo sapiens, UniProt P01116); test: HTRF resonance energy transfer assay, K-Ras WT / SOS1 interaction; format: biochemical; details: HTRF assay of Example 5; read-out: IC50 against K-Ras WT
T2 construct: made in house; host or cells: E. coli BL21 (DE3)
Procedure, shortened: as §1

SW620 cells = test: Ras cellular assay, growth of cells with K-Ras G12V mutation (CellTiter-Glo); format: cell-based; details: Homo sapiens, SW-620; cell growth, Example 9, G12V mutation; read-out: IC50 against SW620 cells
Method: For example, this assay can be also used to assess a selective growth inhibition of a mutant Ras protein relative to a wildtype, or relative to a different mutant Ras protein.
SW620 (ATCC CCL-227) and Capan-1 (ATCC HTB-79) cell lines comprise a G12V mutation and can be used to assess Ras cellular signaling in vitro, e.g., in response to the compounds herein. SW620 culture medium is prepared with RPMI-1640 and 10% heat-inactivated FBS. Capan-1 culture medium is prepared with RPMI-1640 and 10% heat-inactivated FBS. A CellTiter-Glo (CTG) luminescent based assay (Promega) is used to assess growth of the cells, as a measurement of the ability of the compounds herein to inhibit Ras signaling in the cells. The cells (e.g., 800 per well) are seeded in their respective culture medium in standard tissue culture-treated 384-well format plates (Falcon #08-772-116) or ultra-low attachment surface 384-well format plates (S-Bio #MS-9384WZ). The day after plating, cells are treated with a dilution series (e.g., a 10 point 3-fold dilution series) of the compounds herein (e.g., approximately 40 μL final volume per well). Cell viability can be monitored (e.g., approximately 6 days later) according to the manufacturer's recommended instructions, where the CellTiter-Glo reagent is added (e.g., approximately 10 μL), vigorously mixed, covered, and placed on a plate shaker (e.g., approximately for 20 min) to ensure sufficient cell lysis prior to assessment of luminescent signal. The IC50 values are determined using the four parameter fit. The resulting IC50 value is a measurement of the ability of the compounds herein to reduce cell growth of Ras-driven cells (e.g., tumor cell lines) in vitro and/or in vivo.

K-Ras G12V = biological target: T3, K-Ras G12V (Homo sapiens, UniProt P01116, G12V); test: HTRF resonance energy transfer assay, K-Ras G12V / SOS1 interaction; format: biochemical; details: HTRF assay of Example 5; read-out: IC50 against K-Ras G12V
T3 construct: made in house; host or cells: E. coli BL21 (DE3)
Procedure, shortened: as §1

K-Ras G12D = biological target: T4, K-Ras G12D (Homo sapiens, UniProt P01116, G12D); test: HTRF resonance energy transfer assay, K-Ras G12D / SOS1 interaction; format: biochemical; details: HTRF assay of Example 5; read-out: IC50 against K-Ras G12D
T4 construct: made in house; host or cells: E. coli BL21 (DE3)
Procedure, shortened: as §1

T2 sequence (P01116 1-188 isoform P01116-2): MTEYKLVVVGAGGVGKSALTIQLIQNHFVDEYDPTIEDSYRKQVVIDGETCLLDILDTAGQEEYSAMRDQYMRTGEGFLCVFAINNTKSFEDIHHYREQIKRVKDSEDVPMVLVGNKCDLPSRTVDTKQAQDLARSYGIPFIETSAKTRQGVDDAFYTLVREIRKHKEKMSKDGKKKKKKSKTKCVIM
T3 sequence (P01116 1-188 isoform P01116-2 G12V): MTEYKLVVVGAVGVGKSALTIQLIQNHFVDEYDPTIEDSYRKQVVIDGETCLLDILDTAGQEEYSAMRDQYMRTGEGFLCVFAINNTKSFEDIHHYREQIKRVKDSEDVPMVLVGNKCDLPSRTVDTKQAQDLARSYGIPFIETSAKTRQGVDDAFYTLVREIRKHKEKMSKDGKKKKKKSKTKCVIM
T4 sequence (P01116 1-188 isoform P01116-2 G12D): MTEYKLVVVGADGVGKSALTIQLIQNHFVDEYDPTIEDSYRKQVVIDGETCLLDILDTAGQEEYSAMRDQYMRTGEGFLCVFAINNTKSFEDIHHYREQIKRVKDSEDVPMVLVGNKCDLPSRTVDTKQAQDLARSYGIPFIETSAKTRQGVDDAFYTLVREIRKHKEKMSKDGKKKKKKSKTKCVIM
T1 sequence (P01116 1-188 isoform P01116-2 G12S): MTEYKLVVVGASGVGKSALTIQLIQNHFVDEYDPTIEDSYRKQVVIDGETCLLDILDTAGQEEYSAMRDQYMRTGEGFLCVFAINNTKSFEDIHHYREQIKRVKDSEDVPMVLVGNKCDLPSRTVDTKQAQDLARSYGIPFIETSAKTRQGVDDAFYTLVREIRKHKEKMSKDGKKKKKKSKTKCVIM

| SMILES | IC50 (K-Ras G12S) | IC50 (K-Ras WT) | IC50 (SW620 cells) | IC50 (K-Ras G12V) | IC50 (K-Ras G12D) |
| --- | --- | --- | --- | --- | --- |
| COC(C)[C@H]1COc2c(Cl)c(-c3ccc(F)c4sc(N)c(C#N)c34)c(F)c3nc(OC[C@@]45CCCN4C[C@H](F)C5)nc(c23)N1CC(F)F (stereo partly drawn) [Compound 630, 2-amino-4-((5R)-8-chloro-4-(2,2-difluoroethyl)-10-fluoro-2-(((2R,7aS)-2-fluorotetrahydro-1H-pyrrolizin-7a(5H)-yl)methoxy)-5-(1-methoxyethyl)-5,6-dihydro-4H-[1,4]oxazepino[5,6,7-de]quinazolin-9-yl)-7-fluorobenzo[b]thiophene-3-carbonitrile] | < 100 nM | < 100 nM | < 5000 nM | < 100 nM | < 100 nM |
| CN(CCCN1c2nc(OC[C@@]34CCCN3C[C@H](F)C4)nc3c(F)c(-c4ccc(F)c5sc(N)c(C#N)c45)c(Cl)c(c23)OCC1CC#N)C(=O)[C@H]1CN1 (stereo partly drawn) [Compound 709, (2R)—N-(3-(9-(2-amino-3-cyano-7-fluorobenzo[b]thiophen-4-yl)-8-chloro-5-(cyanomethyl)-10-fluoro-2-(((2R,7aS)-2-fluorotetrahydro-1H-pyrrolizin-7a(5H)-yl)methoxy)-5,6-dihydro-4H-[1,4]oxazepino[5,6,7-de]quinazolin-4-yl)propyl)-N-methylaziridine-2-carboxamide] | < 100 nM | < 100 nM | < 5000 nM | < 100 nM | < 100 nM |
| N#Cc1c(N)sc2c(F)ccc(-c3c(Cl)c4c5c(nc(OC[C@@]67CCCN6C[C@H](F)C7)nc5c3F)N(CC3CCCN3C(=O)C3CN3)CCO4)c12 (stereo partly drawn) [Compound 811, 2-amino-4-(4-((1-(aziridine-2-carbonyl)pyrrolidin-2-yl)methyl)-8-chloro-10-fluoro-2-(((2R,7aS)-2-fluorotetrahydro-1H-pyrrolizin-7a(5H)-yl)methoxy)-5,6-dihydro-4H-[1,4]oxazepino[5,6,7-de]quinazolin-9-yl)-7-fluorobenzo[b]thiophene-3-carbonitrile] | < 100 nM | < 100 nM | < 5000 nM | < 100 nM | < 100 nM |
| N#Cc1c(N)sc2c(F)ccc(-c3c(Cl)c4c5c(nc(OC[C@@]67CCCN6C[C@H](F)C7)nc5c3F)N(C3CCCCN(C(=O)C5CN5)C3)CCO4)c12 (stereo partly drawn) [Compound 992, 2-amino-4-(4-(1-(aziridine-2-carbonyl)azepan-3-yl)-8-chloro-10-fluoro-2-(((2R,7aS)-2-fluorotetrahydro-1H-pyrrolizin-7a(5H)-yl)methoxy)-5,6-dihydro-4H-[1,4]oxazepino[5,6,7-de]quinazolin-9-yl)-7-fluorobenzo[b]thiophene-3-carbonitrile] | – | – | < 5000 nM | – | – |
| CS(=O)(=O)NCC1COc2c(Cl)c(-c3ccc(F)c4sc(N)c(C#N)c34)c(F)c3nc(OC[C@@]45CCCN4C[C@H](F)C5)nc(c23)N1CC(F)F (stereo partly drawn) [Compound 847, N-((9-(2-amino-3-cyano-7-fluorobenzo[b]thiophen-4-yl)-8-chloro-4-(2,2-difluoroethyl)-10-fluoro-2-(((2R,7aS)-2-fluorotetrahydro-1H-pyrrolizin-7a(5H)-yl)methoxy)-5,6-dihydro-4H-[1,4]oxazepino[5,6,7-de]quinazolin-5-yl)methyl)methanesulfonamide] | – | – | < 5000 nM | < 100 nM | – |
| N#Cc1c(N)sc2c(F)ccc(-c3c(Cl)c4c5c(nc(OC[C@@]67CCCN6C[C@H](F)C7)nc5c3F)N(CC(F)F)C(CC3CC3C#N)CO4)c12 (single isomer, unassigned) [Compound 674] | – | < 100 nM | < 5000 nM | < 100 nM | < 100 nM |
| N#Cc1c(N)sc2c(F)ccc(-c3c(Cl)c4c5c(nc(OC[C@@]67CCCN6C[C@H](F)C7)nc5c3F)N(C3CCN(C5CC5)C3)CCO4)c12 (stereo partly drawn) [Compound 631, 2-amino-4-(8-chloro-4-(1-cyclopropylpyrrolidin-3-yl)-10-fluoro-2-(((2R,7aS)-2-fluorotetrahydro-1H-pyrrolizin-7a(5H)-yl)methoxy)-5,6-dihydro-4H-[1,4]oxazepino[5,6,7-de]quinazolin-9-yl)-7-fluorobenzo[b]thiophene-3-carbonitrile] | < 100 nM | < 100 nM | – | < 100 nM | < 100 nM |
| N#Cc1c(N)sc2c(F)ccc(-c3c(Cl)c4c5c(nc(OC[C@@]67CCCN6C[C@H](F)C7)nc5c3F)N(CC(F)F)C(C3CNC3)CO4)c12 (stereo partly drawn) [Compound 1131, 2-amino-4-(5-(azetidin-3-yl)-8-chloro-4-(2,2-difluoroethyl)-10-fluoro-2-(((2R,7aS)-2-fluorotetrahydro-1H-pyrrolizin-7a(5H)-yl)methoxy)-5,6-dihydro-4H-[1,4]oxazepino[5,6,7-de]quinazolin-9-yl)-7-fluorobenzo[b]thiophene-3-carbonitrile] | < 100 nM | < 100 nM | – | < 100 nM | < 100 nM |

The remaining lines, values ahead:

| IC50 (K-Ras G12S) | IC50 (K-Ras WT) | IC50 (SW620 cells) | IC50 (K-Ras G12V) | IC50 (K-Ras G12D) | SMILES |
| --- | --- | --- | --- | --- | --- |
| < 100 nM | – | < 5000 nM | < 100 nM | – | C[C@H]1CN(CC2(N(C)C)CCC2)c2nc(OC[C@@]34CCCN3C[C@H](F)C4)nc3c(F)c(-c4ccc(F)c5sc(N)c(C#N)c45)c(Cl)c(c23)O1 [Compound 978, 2-amino-4-((6S)-8-chloro-4-((1-(dimethylamino)cyclobutyl)methyl)-10-fluoro-2-(((2R,7aS)-2-fluorotetrahydro-1H-pyrrolizin-7a(5H)-yl)methoxy)-6-methyl-5,6-dihydro-4H-[1,4]oxazepino[5,6,7-de]quinazolin-9-yl)-7-fluorobenzo[b]thiophene-3-carbonitrile] |
| – | – | < 5000 nM | < 100 nM | < 100 nM | N#Cc1c(N)sc2c(F)ccc(-c3c(Cl)c4c5c(nc(OC[C@@]67CCCN6C[C@H](F)C7)nc5c3F)N(CC(F)F)C(C3CCCN3)CO4)c12 (stereo partly drawn) [Compound 784, 2-amino-4-(8-chloro-4-(2,2-difluoroethyl)-10-fluoro-2-(((2R,7aS)-2-fluorotetrahydro-1H-pyrrolizin-7a(5H)-yl)methoxy)-5-(pyrrolidin-2-yl)-5,6-dihydro-4H-[1,4]oxazepino[5,6,7-de]quinazolin-9-yl)-7-fluorobenzo[b]thiophene-3-carbonitrile] |
| – | – | < 5000 nM | – | – | N#Cc1c(N)sc2c(F)ccc(-c3c(Cl)c4c5c(nc(OC[C@@]67CCCN6C[C@H](F)C7)nc5c3F)N(CC(F)F)[C@@H](C3(O)CC3)CO4)c12 [Compound 1001, 2-amino-4-((R)-8-chloro-4-(2,2-difluoroethyl)-10-fluoro-2-(((2R,7aS)-2-fluorotetrahydro-1H-pyrrolizin-7a(5H)-yl)methoxy)-5-(1-hydroxycyclopropyl)-5,6-dihydro-4H-[1,4]oxazepino[5,6,7-de]quinazolin-9-yl)-7-fluorobenzo[b]thiophene-3-carbonitrile] |
| – | – | < 5000 nM | – | – | N#Cc1c(N)sc2c(F)ccc(-c3c(Cl)c4c5c(nc(OC[C@@]67CCCN6C[C@H](F)C7)nc5c3F)N(C3CCOC3)[C@@H](C(F)F)CO4)c12 (stereo partly drawn) [Compound 747, 2-amino-4-((5R)-8-chloro-5-(difluoromethyl)-10-fluoro-2-(((2R,7aS)-2-fluorotetrahydro-1H-pyrrolizin-7a(5H)-yl)methoxy)-4-(tetrahydrofuran-3-yl)-5,6-dihydro-4H-[1,4]oxazepino[5,6,7-de]quinazolin-9-yl)-7-fluorobenzo[b]thiophene-3-carbonitrile] |
| < 100 nM | < 100 nM | – | < 100 nM | < 100 nM | N#Cc1c(N)sc2c(F)ccc(-c3c(Cl)c4c5c(nc(OC[C@@]67CCCN6C[C@H](F)C7)nc5c3F)N(CC(F)F)[C@@H](C3CC3C#N)CO4)c12 (stereo partly drawn) [Compound 1078, 2-amino-4-((5S)-8-chloro-5-(2-cyanocyclopropyl)-4-(2,2-difluoroethyl)-10-fluoro-2-(((2R,7aS)-2-fluorotetrahydro-1H-pyrrolizin-7a(5H)-yl)methoxy)-5,6-dihydro-4H-[1,4]oxazepino[5,6,7-de]quinazolin-9-yl)-7-fluorobenzo[b]thiophene-3-carbonitrile] |
| < 100 nM | < 100 nM | – | < 100 nM | < 100 nM | N#Cc1c(N)sc2c(F)ccc(-c3c(Cl)c4c5c(nc(OC[C@@]67CCCN6C[C@H](F)C7)nc5c3F)N(CC(F)F)[C@@H](c3cnco3)CO4)c12 (single isomer, unassigned) [Compound 763] |
